Counter-ions that a name gives are not always drawn. Like-named read-outs stand apart in the source and are kept apart here.
Tests used:
IL-23 (p19/p40) = assay: IL23-p19 ELISA, Dendritic, LPS (compound screening using DC cells); type: cell-based, Human; details: PBMC-derived DC cells, IFNγ primed, LPS 1 μg/ml, 18 hours, 10 pt, read-out: IL23-p19 ELISA, Dendritic, LPS, 10 pt, EC50
Method in brief: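 IL-23 in supernatants quantified by sandwich ELISA (anti-p19 capture, biotinylated anti-p40 detection, chemiluminescent readout) after 18 h LPS (1 μg/ml) stimulation. Cells were monocyte-derived DCs (GM-CSF/IL-4, 7 d), IFNγ-primed 24 h and given compound 1 h before LPS; viability by CellTiter Glo.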

IL-23p19 = assay: LPS induced IL23p19 in THP-1 cells (with IFNγ primed) assay; type: cell-based, Human; details: THP-1 cells, IFNγ primed, LPS 1 ug/mL, 18 hours, 10 pt, read-out: IL23-p19 ELISA, THP1-IFNy, LPS, 10 pt EC50
Method in brief: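 Readout is secreted IL-23p19, quantified by chemiluminescent sandwich ELISA after 18 h LPS (1 ug/mL) stimulation of THP-1 cells that had been IFNγ-primed (50 ng/mL, ~18 h) and given compound 1 h beforehand at 37 °C. EC50 derived by curve fit; cytotoxicity tracked with Cell Titer Glo.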

SMILES | EC50 (IL-23 (p19/p40); Homo sapiens, 18 h) [nM] | EC50 (IL-23p19; Homo sapiens, THP-1, 18 h) [nM] | also measured
CCCC(=O)N1CC(n2cc(NC(=O)c3ccc(-c4cn[nH]c4)o3)c(-c3ccccn3)n2)C1 [Compound I-99, N-[1-{1-Butyrylazetidin-3-yl}-3-(pyridine-2-yl)-1H-pyrazol-4-yl]-5-(1H-pyrazol-4-yl)furan-2-carboxamide, formate salt] | 15.6 | 18 | –
O=C(Nc1cn([C@H]2CC[C@H](O)CC2)nc1-c1ccccn1)c1ccc(-c2cn[nH]c2)o1 [Compound I-126, N-(1-((1r,4r)-4-hydroxycyclohexyl)-3-(pyridin-2-yl)-1H-pyrazol-4-yl)-5-(1H-pyrazol-4-yl)furan-2-carboxamide formate] | 21.5 | 81.9 | –
Cn1cc(NC(=O)c2ccc(-c3cnn(COP(=O)(OC(C)(C)C)OC(C)(C)C)c3)o2)c(-c2ccccn2)n1 [Compound I-80, Di-tert-butyl-[[4-{4-(5-((1-methyl-3-(pyridine-2-yl)-1H-pyrazol-4-yl)carbamoyl)furan-2-yl)-1H-pyrazol-1-yl}methyl] phosphate] | 2060 | 2220 | –
CC(C)n1cc(NC(=O)c2csc(-c3cn[nH]c3)n2)c(-c2ccccn2)n1 [II-59, N-(1-isopropyl-3-(pyridin-2-yl)-1H-pyrazol-4-yl)-2-(1H-pyrazol-4-yl)thiazole-4-carboxamide] | 216 | 422 | –
COCCn1cc(NC(=O)c2ccc(-c3c[nH]nc3C(F)(F)F)o2)c(-c2ccccn2)n1 [Compound I-13, N-(1-(2-methoxyethyl)-3-(pyridin-2-yl)-1H-pyrazol-4-yl)-5-(3-(trifluoromethyl)-1H-pyrazol-4-yl)furan-2-carboxamide] | 11000 | 136000 | –
Cn1cc(NC(=O)c2csc(-c3cnn(COP(=O)(O)O)c3)n2)c(-c2ccccn2)n1 [II-36, Sodium (4-(4-((1-methyl-3-(pyridin-2-yl)-1H-pyrazol-4-yl)carbamoyl)thiazol-2-yl)-1H-pyrazol-1-yl)methyl phosphate] | – | – | EC50 (IL-23 (p19/p40); phosphate): 241 nM; EC50 (IL-23p19; phosphate): 165 nM
CCO[C@H]1CC[C@H](n2cc(NC(=O)c3csc(-c4cn[nH]c4)n3)c(-c3ncccc3F)n2)CC1 [II-169, N-(1-((trans)-4-ethoxycyclohexyl)-3-(3-fluoropyridin-2-yl)-1H-pyrazol-4-yl)-2-(1H-pyrazol-4-yl)thiazole-4-carboxamide] | 410 | 42 | –
CCO[C@H]1C[C@@H](n2cc(NC(=O)c3ccc(-c4cnn(C)c4)o3)c(-c3ccccn3)n2)C1 [Compound I-31, N-(1-((1,3-cis)-3-ethoxycyclobutyl)-3-(pyridin-2-yl)-1H-pyrazol-4-yl)-5-(1-methyl-1H-pyrazol-4-yl)furan-2-carboxamide] | 1250 | 6290 | –
CCN(CC)CCn1cc(NC(=O)c2csc(-c3cn[nH]c3)n2)c(-c2ccccn2)n1 [II-49, N-(1-(2-(diethylamino)ethyl)-3-(pyridin-2-yl)-1H-pyrazol-4-yl)-2-(1H-pyrazol-4-yl)thiazole-4-carboxamide] | – | – | EC50 (IL-23 (p19/p40)): 81.2 nM; EC50 (IL-23p19): 238 nM
O=C(Nc1cn([C@H]2CC[C@@H](O)C2)nc1-c1ccccn1)c1csc(-c2cn[nH]c2)n1 (relative stereo) [II-149, N-(1-((cis)-3-hydroxycyclopentyl)-3-(pyridin-2-yl)-1H-pyrazol-4-yl)-2-(1H-pyrazol-4-yl)thiazole-4-carboxamide] | 56.8 | 34.3 | –
COCCn1cc(NC(=O)c2ccc(-c3cnn(COP(=O)(O)OC(C)(C)C)c3)o2)c(-c2ccccn2)n1 [Compound I-11, tert-butyl ((4-(5-((1-(2-methoxyethyl)-3-(pyridin-2-yl)-1H-pyrazol-4-yl)carbamoyl)furan-2-yl)-1H-pyrazol-1-yl)methyl) hydrogen phosphate] | 5190 | 4840 | –
CCOCCn1cc(NC(=O)c2csc(-c3c[nH]nc3C)n2)c(-c2ccccn2)n1 [II-31, N-(1-(2-ethoxyethyl)-3-(pyridin-2-yl)-1H-pyrazol-4-yl)-2-(3-methyl-1H-pyrazol-4-yl)thiazole-4-carboxamide] | – | – | EC50 (IL-23 (p19/p40)): 799 nM; EC50 (IL-23p19): 170 nM
Cc1n[nH]cc1-c1nc(C(=O)Nc2cn(CC(F)(F)F)nc2-c2ccccn2)cs1 [II-100, 2-(3-methyl-1H-pyrazol-4-yl)-N-(3-(pyridin-2-yl)-1-(2,2,2-trifluoroethyl)-1H-pyrazol-4-yl)thiazole-4-carboxamide] | 226 | 56.1 | –
CC(=O)N1CC(n2cc(NC(=O)c3ccc(-c4cn[nH]c4)o3)c(-c3ccccn3)n2)C1 [Compound I-83, N-{1-(1-Acetylazetidin-3-yl)-3-(pyridine-2-yl)-1H-pyrazol-4-yl}-5-(1H-pyrazol-4-yl)furan-2-carboxamide, free base] | 93.2 | 34.8 | –
CCO[C@H]1C[C@@H](n2cc(NC(=O)c3ccc(-c4cn[nH]c4)o3)c(-c3nccs3)n2)C1 [Compound I-62, N-(1-((1s,3s)-3-ethoxycyclobutyl)-3-(thiazol-2-yl)-1H-pyrazol-4-yl)-5-(1H-pyrazol-4-yl)furan-2-carboxamide formate] | 115 | 48.1 | –
O=C(Nc1cn(CC(F)(F)F)nc1-c1ccccn1)c1ccc(-c2cn[nH]c2)o1 [Compound I-117, 5-(1H-pyrazol-4-yl)-N-(3-(pyridin-2-yl)-1-(2,2,2-trifluoroethyl)-1H-pyrazol-4-yl)furan-2-carboxamide] | 25.7 | 284 | –
O=C(Nc1cn(CC2(CO)COC2)nc1-c1ccccn1)c1csc(-c2cn[nH]c2)n1 [II-47, N-(1-((3-(hydroxymethyl)oxetan-3-yl)methyl)-3-(pyridin-2-yl)-1H-pyrazol-4-yl)-2-(1H-pyrazol-4-yl)thiazole-4-carboxamide] | 3210 | 1170 | –
COC1CC(n2cc(NC(=O)c3ccc(-c4cn[nH]c4)o3)c(-c3ccccn3)n2)C1 (stereo not drawn) [Compound I-72, N-{1-(3-Methoxycyclobutyl)-3-(pyridine-2-yl)-1H-pyrazol-4-yl}-5-(1H-pyrazol-4-yl)furan-2-carboxamide, Cis isomer] | – | – | EC50 (IL-23 (p19/p40)): 5 nM; EC50 (IL-23p19): 56.8 nM
CCO[C@H]1C[C@@H](n2cc(NC(=O)c3csc(-c4cn[nH]c4)n3)c(-c3ncccn3)n2)C1 [II-102, N-(1-((1,3-cis)-3-ethoxycyclobutyl)-3-(pyrimidin-2-yl)-1H-pyrazol-4-yl)-2-(1H-pyrazol-4-yl)thiazole-4-carboxamide] | 55.4 | 61.9 | –
CCO[C@H]1C[C@@H](n2cc(NC(=O)c3ccc(-c4cn[nH]c4)o3)c(-c3ccccn3)n2)C1 [Compound I-28, N-(1-((1,3-cis)-3-ethoxycyclobutyl)-3-(pyridin-2-yl)-1H-pyrazol-4-yl)-5-(1H-pyrazol-4-yl)furan-2-carboxamide] | 21.8 | 49.7 | –
CCO[C@H]1C[C@@H](n2cc(NC(=O)c3ccc(-c4cn[nH]c4)o3)c(-c3ccc(F)cn3)n2)C1 [Compound I-138, N-(1-((1s,3s)-3-ethoxycyclobutyl)-3-(5-fluoropyridin-2-yl)-1H-pyrazol-4-yl)-5-(1H-pyrazol-4-yl)furan-2-carboxamide formate] | 686 | 926 | –
O=C(Nc1cn(Cc2ccccc2)nc1-c1ccccn1)c1csc(-c2cn[nH]c2)n1 [II-120, N-(1-benzyl-3-(pyridin-2-yl)-1H-pyrazol-4-yl)-2-(1H-pyrazol-4-yl)thiazole-4-carboxamide] | 1170 | 664 | –

From patent publication US10208074B2, “Pyrazole compounds and method for making and using the compounds” (Rigel Pharmaceuticals, Inc., priority 2015, dated 2019)
